Measured values: patent US10988481B2, “Potent and selective mu opioid receptor modulators” (VIRGINIA COMMONWEALTH UNIVERSITY, priority 2016, dated 2021)
Like-named read-outs stand apart in the source and are kept apart here.

How the values were obtained:
KOR = KOR (Homo sapiens (Human), UniProt P41145); experiment: Competition binding assay at KOR ([3H]DPN, CHO cell membranes)
Method: (§1) Chinese hamster ovary (CHO) cells expressing MOR, KOR and DOR were cultured for use in this assay. The culture media used for MOR CHO cells contained 500 mL DMEM/F12 media, 10% FBS, 1% penicillin/streptomycin, and 2.75 mL G418. The DOR and KOR CHO cells were cultured in the same media except that 5% FBS was used instead of 10%. The cells are allowed to grow until they are 80-95% confluent after which they are split. The cells are continuously cultured and split until there were sufficient cells for the studies.
(§2) Once the cells reached confluence, cells were harvested, centrifuged at 1000×g for 10 minutes, and suspended in membrane buffer (50 mM Tris, 3 mM MgCl2, and 1 mM EGTA, pH 7.4). The cells were then homogenized, centrifuged at 50000×g for 10 minutes, and re-homogenized in membrane buffer. A Bradford assay was conducted to determine membrane protein concentrations, and membrane protein preps (3 μg/aliquot) were stored at −80° C.
(§3) The competition binding assay was conducted to determine the affinity and selectivity of the synthesized compounds to MOR over KOR and DOR. The Kd and Bmax values for [^3H]NLX at MOR and [^3H]DPN at KOR had been determined previously. […] [^3H]NLX was used to label MOR whilst [^3H]DPN was used to label both DOR and KOR. The potency of the new compounds in displacing the specific binding of the radioligand was determined by linear regression analysis of Hill plots. […] The IC50 values were determined and converted to Ki values using the Cheng—Prusoff equation (Rosenblum, A. et al. Exp Clin Psychopharmacol. 2008, 16 (5), 405-416).

DOR [1] = target: T1, DOR (Homo sapiens (Human), UniProt P41143); experiment: Competition binding assay at DOR ([3H]DPN, CHO cell membranes)
T1 sequence (P41143 whole entry, looked up): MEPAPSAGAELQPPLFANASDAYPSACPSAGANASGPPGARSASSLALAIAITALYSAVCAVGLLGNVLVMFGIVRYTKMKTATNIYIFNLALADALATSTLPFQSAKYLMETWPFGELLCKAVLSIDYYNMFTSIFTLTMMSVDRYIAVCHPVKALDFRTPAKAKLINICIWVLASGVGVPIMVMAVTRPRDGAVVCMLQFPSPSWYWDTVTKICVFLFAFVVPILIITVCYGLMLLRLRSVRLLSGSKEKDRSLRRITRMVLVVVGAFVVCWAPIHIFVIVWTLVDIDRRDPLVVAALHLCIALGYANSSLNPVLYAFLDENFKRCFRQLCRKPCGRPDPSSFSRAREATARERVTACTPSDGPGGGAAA
Method: as §1, §2, §3

MOR [2] = target: MOR (Mus musculus, UniProt P42866); type: biochemical; conditions: relative to 3 μM DAMGO at MOR
Chain of MOR (Mus musculus, UniProt P42866) (P42866 whole entry, looked up): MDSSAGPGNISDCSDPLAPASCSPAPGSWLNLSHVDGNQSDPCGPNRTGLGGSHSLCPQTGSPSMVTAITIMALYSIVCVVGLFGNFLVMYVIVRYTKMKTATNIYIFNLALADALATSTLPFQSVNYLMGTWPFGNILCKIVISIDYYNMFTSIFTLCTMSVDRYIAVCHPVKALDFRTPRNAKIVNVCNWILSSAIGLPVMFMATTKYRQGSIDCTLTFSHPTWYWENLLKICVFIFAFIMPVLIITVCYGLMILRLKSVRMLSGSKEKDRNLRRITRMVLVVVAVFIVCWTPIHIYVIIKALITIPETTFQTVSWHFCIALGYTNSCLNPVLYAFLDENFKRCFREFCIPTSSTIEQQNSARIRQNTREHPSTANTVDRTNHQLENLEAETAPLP
Method: The [^35S]GTPγS functional assay was used to determine whether the synthesized compounds are agonists. The agonist's activity of the compounds was measured relative to 3 μM DAMGO at MOR. In this assay, upon receptor activation due to agonist binding, [^35S]GTPγS binds to the Gα subunit. Thus, [^35S]GTPγS replaces endogenous GTP and since the γ-thiophosphate bond is resistant to hydrolysis by GTPase, [^35S]GTPγS labelled Gα subunits accumulate and can be quantified by measuring the amount of incorporated [^35S].
The Bradford assay was then conducted to determine the concentration of the membrane protein using BSA as the standard. Suitable dilutions of membrane protein, [^35S]GTPγS), cold GTPγS, DAMGO and GDP were made in TME. The desired amount of the protein per tube was 10 μg. All the test-tubes were vortexed and incubated in the shaking water bath at 30° C. for 90 minutes, after which bound radioligand was filtered and rinsed three times with cold Tris buffer. The filtered bound radioligand was then transferred into scintillation tubes with 4 mL of scintillation fluid and radioligand was quantified. However, counting was delayed for 9 hrs to allow the radioactivity to enter the solution. Percent DAMGO stimulation was defined as (net stimulated binding of test compound/net stimulated binding of DAMGO)×100%. The normalized data were subjected to nonlinear regression analysis to determine EC50 and Emax values using Prism 6.0 software (GraphPad Software, San Diego, Calif.). The assay was performed in triplicate and repeated at least three times.

Swiss Webster mice [3] = experiment: Warm-water tail immersion assay, blockage of the antinociceptive effect of morphine; conditions: for Blockage of morphine-mediated antinociception: 10 mg/kg s.c. 5 min before morphine 10 mg/kg, tested 20 min after morphine
Method: (§4) FIG. 1A-D. Warm-water tail immersion assay in mice (n=5) at 56±0.1° C. All tested compounds were administered subcutaneously (s.c.). […] Compounds (10 mg/kg) were injected at Time 0. Twenty minutes after injection, tail flick was assessed with hot water. […] Tested compounds (10 mg/kg) were injected at Time 0. Five minutes later, morphine (10 mg/kg) was administered. Twenty minutes after morphine injection, tail flick was tested using hot water.
(§5) For the in vivo studies, male Swiss Webster mice were used for both the warm-water immersion and opioid withdrawal assays. The mice weighed 23-35 g and were housed five to a cage in animal care quarters maintained at 22° C. on a 12 hour light-dark cycle with food and water available ad libitum. The mice were transferred to the test room and the tests were then conducted 18 hours later. Protocols and procedures were approved by the Institutional Animal Care and Use Committee at Virginia Commonwealth University Medical Center and complied with the recommendations of the International Association for the Study of Pain.
(§6) Each indole analogue of naltrexamine was tested for its ability to produce antinociception and/or to antagonize the antinociceptive effects of morphine in mice using the warm-water tail immersion assay described by Coderre and Rollman. The a water bath temperature was maintained at 56±0.1° C. The baseline latency (control) was determined before injecting the compounds into the mice. […] To test for agonism, the tail immersion was conducted 20 min (time that morphine effect starts to peak) after injecting the indole analogues of 6α/β-naltrexamine. To prevent tissue damage, a 10 s maximum cut off time was imposed. Antinociceptive response was calculated as the percentage maximum possible effect (% MPE), where % MPE=[(test−control)/(10−control)]×100. In the antagonism study, the 6α/β-naltrexamine derivatives were given 5 min before morphine. The tail immersion test was conducted 20 min after giving morphine. % MPE was calculated for each mouse using at least five mice per drug. AD50 values were calculated using the least-squares linear regression analysis followed by calculation of 95% confidence interval by Bliss method. A higher % MPE indicates a stronger antinociception effect by the ligand.

morphine-pelleted mice = experiment: Opioid withdrawal assay in chronic morphine-exposed (pelleted) mice
Method: as §5
A 75 mg morphine pellet was implanted in to the base of the neck of the mice and the mice were then given time to recover in their home cages before the test was conducted. The mice were then allowed for 30 min habituation to an open-topped, square, clear Plexiglas observation chamber (26×26×26 cm^3) with lines partitioning the bottom into quadrants before they were given antagonist. All drugs and test compounds were administered subcutaneously (s.c.). […] Withdrawal commenced within 3 min after antagonist administration. Escape jumps, paw tremors and wet dog shakes were quantified by counting their occurrences over 20 min for each mouse using five mice per drug. The data is given as the mean±SEM. One-way ANOVA followed by the post hoc Dunnett test were performed to assess significance using the Prism 6.0 software.

Swiss Webster mice [4] = experiment: Warm-water tail immersion assay, antinociceptive (agonist) effect; type: in vivo; conditions: 10 mg/kg s.c., tail flick 20 min after injection, 56 °C
Method: as §4, §5
as §6, with “In the antagonism study, the 6α/β-naltrexamine derivatives were given 5 min before morphine.” left out, “A higher % MPE indicates a stronger antinociception effect by the ligand.” left out

MOR [5] = target: MOR (Homo sapiens (Human), UniProt P35372); conditions: background statement; cited from earlier work
Chain of MOR (Homo sapiens (Human), UniProt P35372) (P35372 whole entry): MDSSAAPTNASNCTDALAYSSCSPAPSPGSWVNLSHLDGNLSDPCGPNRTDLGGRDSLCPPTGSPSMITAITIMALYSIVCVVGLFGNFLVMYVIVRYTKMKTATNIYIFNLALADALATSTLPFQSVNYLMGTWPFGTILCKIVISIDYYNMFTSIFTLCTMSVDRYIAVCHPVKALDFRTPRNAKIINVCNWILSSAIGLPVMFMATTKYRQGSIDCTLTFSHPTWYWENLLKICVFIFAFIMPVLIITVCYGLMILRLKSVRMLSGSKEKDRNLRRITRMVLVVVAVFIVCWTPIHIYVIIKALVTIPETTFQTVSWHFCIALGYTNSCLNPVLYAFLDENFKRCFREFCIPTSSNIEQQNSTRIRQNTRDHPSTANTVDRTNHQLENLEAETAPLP

DOR [6] = target: T1, DOR; conditions: read-out: Ki (nM) ± SEM δ; values obtained from previous experiments; cited from earlier work
[7] = [3H]DPN, KOR CHO membranes, read-out: Ki (nM) ± SEM κ
[8] = [3H]DPN, DOR CHO membranes, read-out: Ki (nM) ± SEM δ
[9] = 50 mg/kg s.c., morphine-pelleted mice

## Cl.O=C(N[C@H]1CC[C@@]2(O)[C@H]3Cc4ccc(O)c5c4[C@@]2(CCN3CC2CC2)[C@H]1O5)c1cccc2cc[nH]c12 [Compound 6, 17-Cyclopropylmethyl-3,14β-dihydroxy-4,5α-epoxy-6α-(indole-7-carboxamido)morphinan]
KOR; [7]
  Ki: 1.69 ± 0.35 nM
DOR [1]; [8]
  Ki: 10.9 ± 2.94 nM
MOR [2]
  Emax(% DAMGO) ± SEM: 20.95 ± 4.43 % DAMGO
Swiss Webster mice [3]
  Blockage of morphine-mediated antinociception: effectively blocked morphine-mediated antinociception
Swiss Webster mice [3]; dose-dependent study against morphine, s.c.
  AD50 (95% CL), opioid antagonist effect: 2.39 (0.46-12.47) mg/kg
morphine-pelleted mice; 1 mg/kg s.c., morphine-pelleted mice
  Escape jumps compared with naltrexone 1 mg/kg: significantly less escape jumps than naltrexone
morphine-pelleted mice; 1 mg/kg, morphine pelleted mice (not in placebo pelleted mice)
  Diarrhea: produced diarrhea
morphine-pelleted mice; [9]
  Paw tremors compared with naltrexone 1 mg/kg: significantly less paw tremors than naltrexone
  Wet-dog shakes compared with naltrexone 1 mg/kg: significantly less wet-dog shakes than naltrexone
morphine-pelleted mice; 50 mg/kg s.c., morphine-pelleted mice, not significantly different
  Escape jumps compared with naltrexone 1 mg/kg: more escape jumps
morphine-pelleted mice; 50 mg/kg s.c., placebo-pelleted mice
  Withdrawal symptoms in placebo-pelleted mice: did not induce any significant withdrawal symptoms

## Cl.O=C(N[C@@H]1CC[C@@]2(O)[C@H]3Cc4ccc(O)c5c4[C@@]2(CCN3CC2CC2)[C@H]1O5)c1cc2ccccc2[nH]1 [Compound 10, 17-Cyclopropylmethyl-3,14β-dihydroxy-4,5α-epoxy-6β-(indole-2-carboxamido)morphinan]
KOR
  Ki: 0.178 ± 0.002 nM
DOR [1]
  Ki: 1.54 ± 0.473 nM
Swiss Webster mice [4]
  Antinociceptive effect (agonism) in warm-water immersion assay: opioid agonist

## Cl.O=C(N[C@@H]1CC[C@@]2(O)[C@H]3Cc4ccc(O)c5c4[C@@]2(CCN3CC2CC2)[C@H]1O5)c1cccc2cc[nH]c12 [Compound 15, 17-Cyclopropylmethyl-3,14β-dihydroxy-4,5α-epoxy-6β-(indole-7-carboxamido)morphinan]
KOR
  Ki: 0.52 ± 0.094 nM
DOR [1]
  Ki: 30.4 ± 9.49 nM
MOR [2]
  Emax(% DAMGO) ± SEM: 32.0 ± 4.6 % DAMGO
Swiss Webster mice [4]
  Antinociceptive effect (agonism) in warm-water immersion assay: partial opioid agonists
Swiss Webster mice [3]
  Blockage of morphine-mediated antinociception: effectively blocked morphine-mediated antinociception

## Cl.O=C(Cc1c[nH]c2ccccc12)N[C@@H]1CC[C@@]2(O)[C@H]3Cc4ccc(O)c5c4[C@@]2(CCN3CC2CC2)[C@H]1O5 [Compound 16, 17-Cyclopropylmethyl-3,14β-dihydroxy-4,5α-epoxy-6β-[2-(indol-3-yl)acetamido)morphinan]
KOR; [7]
  Ki: 0.947 ± 0.114 nM
DOR [1]; [8]
  Ki: 37 ± 1.21 nM
MOR [2]
  Emax(% DAMGO) ± SEM: 50.17 ± 7.75 % DAMGO
Swiss Webster mice [4]
  Antinociceptive effect (agonism) in warm-water immersion assay: partial opioid agonists

## COc1cccc2c1[C@]13CCN(CC4CC4)[C@H](C2)[C@]1(OC)CCC(=O)C3 [Cyprodime]
MOR [5]
  Selectivity DOR/MOR (MOR over DOR): ≈ 39 fold
  Selectivity KOR/MOR: ≈ 10

## Cl.O=C(N[C@H]1CC[C@@]2(O)[C@H]3Cc4ccc(O)c5c4[C@@]2(CCN3CC2CC2)[C@H]1O5)c1cc2ccccc2cn1 [NAQ, 17-Cyclopropylmethyl-3,14β-Dihydroxy-4,5α-Epoxy-6α-(Isoquinoline-3-Carboxamido)morphinan]
DOR [6]
  Ki: 162 ± 15 nM
